“And” between values parts separate entries of the source, which are not always exact repeats. Identical values can stand only once.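 Following 48 hours of exposure in 96-well plates, responses at five concentrations were used to interpolate endpoints linearly. At the GI50, growth is halved. TGI denotes the concentration required for complete inhibition of growth.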

Test systems include A549 NSCLC; ACHN renal; COLO 205 colon; HCT-15 colon; HOP-62 NSCLC; MOLT-4 leukemia; RPMI-8226 leukemia; SK-MEL-28 melanoma; SW-620 colon; RXF 393 renal.
What all share (assay): NCI-60 cell line screen, 48 h

`CC(C)(C)c1nc(-c2cccc(NS(=O)(=O)c3c(F)cccc3F)c2F)c(-c2ccnc(N)n2)s1`: the GI50 in the assay on A549 NSCLC is 26.1 µM; in the assay on ACHN renal it was 0.211 µM; in the assay with COLO 205 colon, < 0.01 µM; in the assay with HCT-15 colon it was 22.2 µM; in the assay with HOP-62 NSCLC it was 47.2 µM; in the assay on MOLT-4 leukemia it was 26.5 µM. Further, the GI50 with RPMI-8226 leukemia is 24.1 µM; with SK-MEL-28 melanoma, < 0.01 µM; in the assay with SW-620 colon it was 23.9 µM. The TGI with A549 NSCLC is > 100 µM; with ACHN renal, > 100 µM; with COLO 205 colon, > 100 µM; with HCT-15 colon, 81.1 µM; in the assay on HOP-62 NSCLC it was > 100 µM; in the assay with MOLT-4 leukemia, > 100 µM. For the same molecule, the values for the TGI with RPMI-8226 leukemia, with SK-MEL-28 melanoma and in the assay with SW-620 colon were 97 µM, > 100 µM and > 100 µM, respectively.
Take `CCCCN1C(=O)/C(=c2\sc3n(c2=O)C2C(NN=3)N(CC)C(=O)N2CC)c2ccccc21` (centres undefined): the GI50 with HOP-62 NSCLC was 1.21 µM; in the assay with MOLT-4 leukemia, 2.73 µM; with RXF 393 renal, 0.365 µM; in the assay on SW-620 colon it was 0.442 µM. Also, the TGI is 4.95 µM in the assay on HOP-62 NSCLC, > 100 µM with MOLT-4 leukemia, 2.23 µM in the assay with RXF 393 renal and > 100 µM in the assay with SW-620 colon.
Consider `CNCCCNc1c2ccccc2nc2cccc([N+](=O)[O-])c12`, for which the TGI is 0.00587 µM and 0.0106 µM in the assay on A549 NSCLC; 0.0152 µM with ACHN renal; 0.00586 µM in the assay on COLO 205 colon; 0.0207 µM and 0.0116 µM in the assay with HCT-15 colon; 0.0129 µM in the assay on HOP-62 NSCLC; 0.00217 µM with RXF 393 renal. The TGI in the assay on SK-MEL-28 melanoma was 0.0279 µM and 0.0138 µM; with SW-620 colon, 0.0357 µM and 0.0101 µM.
In the case of `O=c1[nH]c(=O)n(C2CC(O)C(CO)O2)cc1COCC(F)(F)F` (centres undefined), the TGI with A549 NSCLC, in the assay on ACHN renal, in the assay with COLO 205 colon, in the assay with HOP-62 NSCLC, in the assay with MOLT-4 leukemia and in the assay on RPMI-8226 leukemia was > 100 µM in each case. In addition, the TGI in the assay on RXF 393 renal and with SW-620 colon was > 100 µM in each case.
As to `CC(=O)O[C@H](C[C@H](C(C)C)N(C)C(=O)[C@@H](NC(=O)[C@H]1CCCCN1C)C(C)C)c1cccc(C(=O)N[C@@H](Cc2ccccc2)C[C@H](C)C(=O)O)n1`, the GI50 in the assay on A549 NSCLC was 0.0666 µM; in the assay on ACHN renal it was 0.0955 µM; in the assay with COLO 205 colon, 0.0279 µM; in the assay with HCT-15 colon, 0.219 µM; with HOP-62 NSCLC, 0.0648 µM; in the assay on MOLT-4 leukemia, 0.0219 µM. Besides, the GI50 in the assay on RPMI-8226 leukemia is 0.0213 µM; in the assay on RXF 393 renal, 0.0225 µM; in the assay on SW-620 colon, < 0.0222 µM. Further, the TGI with A549 NSCLC is > 25 µM; in the assay on ACHN renal it was > 25 µM; in the assay with COLO 205 colon it was 0.329 µM; in the assay with HCT-15 colon, > 25 µM; with HOP-62 NSCLC it was > 25 µM; in the assay with MOLT-4 leukemia, > 25 µM. In addition, the TGI in the assay with RPMI-8226 leukemia, in the assay on RXF 393 renal and in the assay with SW-620 colon was > 25 µM throughout.
Regarding `C=Cc1c(C)c2cc3[nH]c(cc4nc(cc5nc(cc1[nH]2)C(C)=C5CCC(=O)N(CC)CC)C(CCC(=O)N(CC)CC)=C4C)c(C)c3C=C`, the TGI with A549 NSCLC, in the assay on ACHN renal, in the assay with HCT-15 colon, in the assay with HOP-62 NSCLC, in the assay on MOLT-4 leukemia and with RXF 393 renal was > 100 µM each time. For the same molecule, the TGI in the assay on SK-MEL-28 melanoma and in the assay on SW-620 colon was > 100 µM throughout.
Take `CC1(C)C(=O)C(=Cc2ccco2)C1=O`: the TGI in the assay on A549 NSCLC, in the assay on ACHN renal, with COLO 205 colon, with HCT-15 colon, with MOLT-4 leukemia and in the assay on RPMI-8226 leukemia was > 100 µM in each case. Also, the TGI with SK-MEL-28 melanoma and with SW-620 colon was > 100 µM throughout.
Take `C[C@H](NC(=O)c1c(C(F)F)nn(C)c1Oc1cccc(C(F)(F)F)c1)c1ccc(C(=O)O)cc1`: the GI50 in the assay with A549 NSCLC, in the assay with ACHN renal, with COLO 205 colon, with HCT-15 colon, in the assay on HOP-62 NSCLC and with MOLT-4 leukemia was > 100 µM each time. Besides, the GI50 in the assay on RPMI-8226 leukemia, with SK-MEL-28 melanoma and with SW-620 colon was > 100 µM each time. In addition, the TGI with A549 NSCLC, with ACHN renal, in the assay on COLO 205 colon, with HCT-15 colon, in the assay with HOP-62 NSCLC and with MOLT-4 leukemia was > 100 µM throughout. Also, the TGI with RPMI-8226 leukemia, with SK-MEL-28 melanoma and in the assay on SW-620 colon was > 100 µM throughout.
In the case of `COc1cc2c3c(c1OC)C(=O)C=C3N(S(=O)(=O)c1ccc(C)cc1)CC2`, the TGI with A549 NSCLC, with ACHN renal, with COLO 205 colon, with HCT-15 colon, with HOP-62 NSCLC and in the assay with MOLT-4 leukemia was > 100 µM each time. For the same molecule, the TGI in the assay with RPMI-8226 leukemia, in the assay on SK-MEL-28 melanoma and with SW-620 colon was > 100 µM in each case.
In the case of `Cc1cn2c(/C=N/N=C(N)N)c(-c3ccncc3)nc2s1`, the GI50 was 17.6 µM in the assay on A549 NSCLC; 18.5 µM in the assay with ACHN renal; 17.5 µM in the assay on COLO 205 colon; 44.1 µM in the assay with HCT-15 colon; 14.9 µM with HOP-62 NSCLC; 7.74 µM in the assay on MOLT-4 leukemia. In addition, the GI50 in the assay on RXF 393 renal is 14.9 µM; with SW-620 colon it was 18.9 µM. Besides, the TGI is 32.1 µM in the assay on A549 NSCLC; 32.5 µM with ACHN renal; 33.3 µM with COLO 205 colon; > 100 µM in the assay on HCT-15 colon; 28.1 µM with HOP-62 NSCLC; 32.2 µM in the assay with MOLT-4 leukemia. Also, the values for the TGI in the assay on RXF 393 renal and with SW-620 colon were 29.8 µM and 33.8 µM, respectively.
On to `O=c1c2cccnc2ncn1CCCN1CCCC1`, for which the TGI in the assay on A549 NSCLC, in the assay with ACHN renal, in the assay on COLO 205 colon, in the assay with HOP-62 NSCLC, in the assay with MOLT-4 leukemia and in the assay with RXF 393 renal was > 100 µM in each case. In addition, the TGI in the assay on SW-620 colon is > 100 µM.
For the molecule `COc1cc(NC(C)CCCNC(C)C)c2ncccc2c1OC` (centres undefined), the GI50 in the assay with A549 NSCLC was > 100 µM; in the assay with ACHN renal, > 100 µM; in the assay on COLO 205 colon, 14 µM; in the assay on HCT-15 colon, > 100 µM; with HOP-62 NSCLC it was > 100 µM; in the assay on MOLT-4 leukemia, > 100 µM. Further, the results for the GI50 in the assay on RXF 393 renal, in the assay with SK-MEL-28 melanoma and with SW-620 colon were > 100 µM, > 100 µM and 97.1 µM, respectively. Moreover, the TGI in the assay with A549 NSCLC is > 100 µM; in the assay on ACHN renal it was > 100 µM; in the assay on COLO 205 colon, 39.1 µM; in the assay with HCT-15 colon, > 100 µM; in the assay with HOP-62 NSCLC, > 100 µM; with MOLT-4 leukemia, > 100 µM. Also, the TGI with RXF 393 renal, in the assay on SK-MEL-28 melanoma and in the assay with SW-620 colon was > 100 µM each time.

Values taken from PubChem BioAssay (NCI).
